# Reference: patent US11970493B2, “Autotaxin inhibitor compounds” (ILDONG PHARMACEUTICAL CO., LTD., priority 2020, dated 2024)
# Counter-ions that a name gives are not always drawn.
# Columns and labels:
# [1] = system: LPA 18:2 level in mouse plasma; test: In vitro LPA assay, reduction of LPA 18:2 level in mouse plasma (LC-MS/MS); assay type: biochemical; conditions: 2 hr at 37° C., LPA 18:2 reduction
# Procedure: (§1) Autotaxin (ATX) plays an important role in lysophosphatidic acid (LPA) signaling. An in vitro LPA assay was conducted to determine IC50 values of the test compounds on reduction of LPA 18:2 level in rat or mouse plasma. This example describes the assay data (IC50 value ranges) of exemplary compounds from LPA assays using mouse and rat plasma. Compound GPLG-1690 was assayed as a reference compound.
# (§2) The 10 mM DMSO stock solutions of test compounds and 4-fold serial dilutions of the test compounds were prepared at various concentrations. The diluted solutions of the compounds were diluted with 1×PBS (pH 7.5) buffer. 38 μL of rat or mouse plasma samples were mixed with 2 μL of the diluted solutions of the compounds or 2% DMSO solutions in 96-well plate (final 0.1% DMSO). After incubating for 2 hr at 37° C., 120 μL MeOH containing IS (250 ng/mL of LPA 17:0) was added to each well. Mixture was vortexed for 1 min, and then centrifuged for 30 min (4000 rpm, 4° C.). 100 μL supernatant was transferred to a 96-well plate containing 100 μL pure water and the plate was shaken for 10 min. 5 μL supernatant was injected into LC-MS/MS system. No calibration curve will be prepared for LPA 18:2 and all quantifications were performed based on peak area ratios (LPA 18:2/LPA 17:0). For each concentration of compound LPA data were expressed as percentage of reduction (% reduction) using the formula. 100−[((LPA ratio-LPA ratio in control sample after 0 hr incubation)/(LPA ratio in control sample after 2 hr incubation—LPA ratio in control sample after 0 hr incubation))*100]. Data
# [2] = system: LPA 18:2 level in rat plasma; test: In vitro LPA assay, reduction of LPA 18:2 level in rat plasma (LC-MS/MS); assay type: biochemical; conditions: 2 hr at 37° C., LPA 18:2 reduction
# Procedure: as §1, §2
# [3] = biological target: hATX/ENPP2 (Homo sapiens, UniProt Q13822); test: hATX/ENPP2 biochemical assay using 16:0-LPC as substrate (Amplex Red/choline oxidase/HRP fluorescence); conditions: hENPP2 2.5 nM, LPC (16:0) substrate
# How it was run: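 Enzyme preincubated with compounds 15 min at room temperature in 50 mM Tris-HCl pH 8.0, 140 mM NaCl, 5 mM CaCl2, 0.01% Triton X-100. Reaction started with 80 μM LPC (16:0) stock plus Amplex Red/choline oxidase/HRP mix; fluorescence (ex 530/em 590 nm) read kinetically. IC50 from slope between 60 and 70 min.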
# [4] = Mouse PK study (IV and PO); assay type: in vivo; conditions: male, C57BL/6, mouse, plasma, male C57BL/6 mice; for AUC(0-inf): IV 2 mg/kg and PO 10 mg/kg study; for bioavailability / Cmax: po, 10 mg/kg; for bioavailability: IV 2 mg/kg and PO 10 mg/kg, read-out: F % (bioavailability); for Cmax: PO group 10 mg/kg
# Procedure: This example describes the pharmacokinetic (PK) data obtained for various compounds of the present disclosure, from studies using mice. The following PK parameters were calculated: • Bioavailability (F %) were calculated using the linear/log trapezoidal rule • Peak plasma concentrations (Cmax (ng/mL)) were taken directly from the plasma concentration vs. time profiles for the PO group • Area under the curve e.g., the area under the concentration curve from time 0 to infinity (AUC0-inf(ng*h/mL)). Experimental Procedures
# After intravenous (IV) and oral (PO) administration at 2 mg/kg and 10 mg/kg to male C57BL/6 mice, respectively, the blood samples were collected at the designed sampling time points. All blood samples were transferred into pre-chilled commercial polyethylene microcentrifuge tubes containing K2-EDTA as an anticoagulant. Samples were processed for plasma by centrifugation. Plasma samples was transferred into polypropylene tubes pre-chilled on dry ice and then quickly frozen over dry ice and kept at −70±10° C. until LC-MS/MS analysis. Mice plasma samples were analyzed using qualified bioanalytical methods based on protein precipitation followed by LC-MS/MS analysis. Individual plasma concentration data of each compound was subjected to noncompartmental pharmacokinetic analysis using Phoenix WinNonlin™. Nominal doses were used for pharmacokinetic parameters calculation.
IC50 [1],IC50 [2],IC50 [3],AUC(0-inf) [4],bioavailability [4],Cmax [4],Compound
200 to 800 nM,≤ 200 nM,–,–,–,–,"CCc1nc2ccc(-c3cnc(N4CCN(CC(=O)N5CC[C@@H](O)C5)CC4)nc3)cn2c1N(C)c1nc(-c2ccc(F)cc2)c(C#N)s1 [45 (hydrochloride salt), (R)-2-((2-ethyl-6-(2-(4-(2-(3-hydroxypyrrolidin-1-yl)-2-oxoethyl)piperazin-1-yl)pyrimidin-5-yl)imidazo[1,2-a]pyridin-3-yl)(methyl)amino)-4-(4-fluorophenyl)thiazole-5-carbonitrile]"
200 to 800 nM,200 to 800 nM,–,–,–,–,"CCc1nc2ccc(-c3cnc(N4CCN(CC(=O)N5CC[C@H](O)C5)CC4)nc3)cn2c1N(C)c1nc(-c2ccc(F)cc2)c(C#N)s1 [46 (hydrochloride salt), (S)-2-((2-ethyl-6-(2-(4-(2-(3-hydroxypyrrolidin-1-yl)-2-oxoethyl)piperazin-1-yl)pyrimidin-5-yl)imidazo[1,2-a]pyridin-3-yl)(methyl)amino)-4-(4-fluorophenyl)thiazole-5-carbonitrile]"
200 to 800 nM,≤ 200 nM,≤ 20 nM,–,–,–,CCc1nc2ccc(-c3cnc(N4CCN(C(=O)C5CN(C)C5)CC4)nc3)cn2c1N(C)c1nc(-c2ccc(F)cc2)c(C#N)s1 [79 (hydrochloride salt)]
200 to 800 nM,≤ 200 nM,≤ 20 nM,26700 ng·h/mL,28%,4950 ng/mL,"CCc1nc2ccc(-c3cnc(N4CCN(C(=O)C5(CO)CC5)CC4)nc3)cn2c1N(C)c1nc(-c2ccc(F)cc2)c(C#N)s1 [Compound 10, 2-((2-ethyl-6-(2-(4-(1-(hydroxymethyl)cyclopropane-1-carbonyl)piperazin-1-yl)pyrimidin-5-yl)imidazo[1,2-a]pyridin-3-yl)(methyl)amino)-4-(4-fluorophenyl)thiazole-5-carbonitrile]"
200 to 800 nM,200 to 800 nM,20 to 200 nM,21700 ng·h/mL,42%,4310 ng/mL,"CCc1nc2ccc(-c3cnc(N4CC(NC5(CO)CC5)C4)nc3)cn2c1N(C)c1nc(-c2ccc(F)cc2)c(C#N)s1 [Compound 30, 2-((2-ethyl-6-(2-(3-((1-(hydroxymethyl)cyclopropyl)amino)azetidin-1-yl)pyrimidin-5-yl)imidazo[1,2-a]pyridin-3-yl)(methyl)amino)-4-(4-fluorophenyl)thiazole-5-carbonitrile]"
200 to 800 nM,200 to 800 nM,≤ 20 nM,–,–,–,"CCc1nc2ccc(-c3cnc(N4CCN(C(=O)N5CCCC5)CC4)nc3)cn2c1N(C)c1nc(-c2ccc(F)cc2)c(C#N)s1 [Compound 42, 2-((2-ethyl-6-(2-(4-(pyrrolidine-1-carbonyl)piperazin-1-yl)pyrimidin-5-yl)imidazo[1,2-a]pyridin-3-yl)(methyl)amino)-4-(4-fluorophenyl)thiazole-5-carbonitrile]"
200 to 800 nM,≤ 200 nM,20 to 200 nM,–,–,–,"CCc1nc2ccc(-c3ccc(N4CCN(C(=O)N5CCCC5)CC4)nc3)cn2c1N(C)c1nc(-c2ccc(F)cc2)c(C#N)s1 [Compound 85, 2-((2-ethyl-6-(6-(4-(pyrrolidine-1-carbonyl)piperazin-1-yl)pyridin-3-yl)imidazo[1,2-a]pyridin-3-yl)(methyl)amino)-4-(4-fluorophenyl) thiazole-5-carbonitrile]"
> 800 nM,200 to 800 nM,–,–,–,–,"CCc1nc2ccc(-c3ccc(N4CCN(C(=O)C5CN(C)C5)CC4)nc3)cn2c1N(C)c1nc(-c2ccc(F)cc2)c(C#N)s1 [Compound 86 hydrochloride, 2-((2-ethyl-6-(6-(4-(1-methylazetidine-3-carbonyl)piperazin-1-yl)pyridin-3-yl)imidazo[1,2-a]pyridin-3-yl)(methyl)amino)-4-(4-fluorophenyl)thiazole-5-carbonitrile hydrochloride]"
200 to 800 nM,200 to 800 nM,20 to 200 nM,–,–,–,"CCc1nc2ccc(-c3ccc(C(=O)N4CCCC4)nc3)cn2c1N(C)c1nc(-c2ccc(F)cc2)c(C#N)s1 [Compound 87, 2-((2-ethyl-6-(6-(pyrrolidine-1-carbonyl)pyridin-3-yl)imidazo[1,2-a]pyridin-3-yl)(methyl)amino)-4-(4-fluorophenyl)thiazole-5-carbonitrile]"
200 to 800 nM,≤ 200 nM,≤ 20 nM,–,–,–,"CCc1nc2ccc(-c3ccc(N4CCN(C(=O)C5(CO)CC5)CC4)nc3)cn2c1N(C)c1nc(-c2ccc(F)cc2)c(C#N)s1 [Compound 93, 2-((2-ethyl-6-(6-(4-(1-(hydroxylmethyl)cyclopropane-1-carbonyl)piperazin-1-yl)pyridin-3-yl)imidazo[1,2-a]pyridin-3-yl) (methyl)amino)-4-(4-fluorophenyl)thiazole-5-carbonitrile]"
200 to 800 nM,≤ 200 nM,20 to 200 nM,–,–,–,"CCc1nc2ccc(-c3ccc(N4CC(NC5(CO)CC5)C4)nc3)cn2c1N(C)c1nc(-c2ccc(F)cc2)c(C#N)s1 [Compound 109, 2-((2-ethyl-6-(6-(3-((1-(hydroxymethyl)cyclopropyl)amino)azetidin-1-yl)pyridin-3-yl)imidazo[1,2-a]pyridin-3-yl)(methyl)amino)-4-(4-fluorophenyl)thiazole-5-carbonitrile]"
200 to 800 nM,≤ 200 nM,≤ 20 nM,–,–,–,"CCc1nc2ccc(-c3ccc(N4CCC(C(=O)N5CCNCC5)CC4)nc3)cn2c1N(C)c1nc(-c2ccc(F)cc2)c(C#N)s1 [Compound 118, 2-((2-ethyl-6-(6-(4-(piperazine-1-carbonyl)piperidin-1-yl)pyridin-3-yl)imidazo[1,2-a]pyridin-3-yl) (methyl)amino)-4-(4-fluorophenyl)thiazole-5-carbonitrile]"
200 to 800 nM,≤ 200 nM,20 to 200 nM,–,–,–,"CCc1nc2ccc(-c3ccc(N4CCC(C(=O)N5CCCCC5)CC4)nc3)cn2c1N(C)c1nc(-c2ccc(F)cc2)c(C#N)s1 [Compound 121, 2-((2-ethyl-6-(6-(4-(piperidine-1-carbonyl)piperidin-1-yl)pyridin-3-yl)imidazo[1,2-a]pyridin-3-yl)(methyl)amino)-4-(4-fluorophenyl)thiazole-5-carbonitrile]"
–,–,≤ 20 nM,47700 ng·h/mL,57.8%,7000 ng/mL,"CCc1nc2ccc(-c3ccc(N4CCC(C(=O)N5CCC5)CC4)nc3)cn2c1N(C)c1nc(-c2ccc(F)cc2)c(C#N)s1 [Compound 122, 2-((6-(6-(4-(azetidine-1-carbonyl)piperidin-1-yl)pyridin-3-yl)-2-ethylimidazo[1,2-a]pyridin-3-yl)(methyl)amino)-4-(4-fluorophenyl)thiazole-5-carbonitrile]"
200 to 800 nM,≤ 200 nM,20 to 200 nM,–,–,–,"CCc1nc2ccc(-c3cnc(N4CC(C(=O)N5CCC5)C4)nc3)cn2c1N(C)c1nc(-c2ccc(F)cc2)c(C#N)s1 [Compound 125, 2-((6-(2-(3-(azetidine-1-carbonyl)azetidin-1-yl)pyrimidin-5-yl)-2-ethylimidazo[1,2-a]pyridin-3-yl)(methyl)amino)-4-(4-fluorophenyl)thiazole-5-carbonitrile]"
200 to 800 nM,≤ 200 nM,≤ 20 nM,–,–,–,"CCc1nc2ccc(-c3cnc(N4CCC(C(=O)N5CCOCC5)CC4)nc3)cn2c1N(C)c1nc(-c2ccc(F)cc2)c(C#N)s1 [Compound 127, 2-((2-ethyl-6-(2-(4-(morpholine-4-carbonyl)piperidin-1-yl)pyrimidin-5-yl)imidazo [1,2-a]pyridin-3-yl)(methyl)amino)-4-(4-fluorophenyl)thiazole-5-carbonitrile]"
> 800 nM,> 800 nM,–,–,–,–,"CCc1nc2c(C)cc(N3CCN(CC(=O)N4CC(O)C4)CC3)cn2c1N(C)c1nc(-c2ccc(F)cc2)c(C#N)s1 [GPLG-1690, Ziritaxestat, reference compound]"
